Data set [1] has as its system Candida albicans (CCM 8186). Type of data set: cell-based. Particulars: broth microdilution, Mueller-Hinton broth + 2% glucose, about 2.5 x 10^3 CFU/mL, 37°C, 24 h, absorbance 590 nm, peptide 2 to 250 μg/mL, at least triplicate. The method in brief:
(§1)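 Broth microdilution MIC: peptides serially diluted in PBS (2 to 250 μg/mL) were mixed with double-concentrated Mueller-Hinton broth inoculum, about 10^5 CFU/mL for bacteria or about 2.5 x 10^3 CFU/mL for Candida (broth supplemented with 2% glucose). After incubation at 37°C, absorbance at 590 nm was read at 24 h, in at least triplicate.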
(In general: In broth dilution the organism is exposed to a series of concentrations in liquid medium.)

The subject of data set [2] is Candida tropicalis (CCM 8264). The data set is classed as cell-based. The settings on record: broth microdilution, Mueller-Hinton broth + 2% glucose, about 2.5 x 10^3 CFU/mL, 37°C, 24 h, absorbance 590 nm, at least triplicate. The method in brief: as §1
For data set [3], the system named is Candida glabrata (CCM 8270). The data set is classed as cell-based. Particulars: broth microdilution, Mueller-Hinton broth + 2% glucose, about 2.5 x 10^3 CFU/mL, 37°C, 24 h, absorbance 590 nm, at least triplicate. The method in brief: as §1
The test system of data set [4] is Staphylococcus epidermidis (PCM 2118). Type of data set: cell-based. Particulars: broth microdilution, Mueller-Hinton broth, approximately 10^5 CFU/mL, 37°C, 24 h, absorbance 590 nm, at least triplicate. The method in brief:
as §1

The test system of data set [5] is Escherichia coli (PCM 2057). The data set is classed as cell-based. The settings on record: broth microdilution, Mueller-Hinton broth, approximately 10^5 CFU/mL, 37°C, 24 h, absorbance 590 nm, at least triplicate. The method in brief:
as §1

Data set [6] deals with Candida parapsilosis (CCM 8260). The data set is classed as cell-based. The settings on record: broth microdilution, Mueller-Hinton broth + 2% glucose, about 2.5 x 10^3 CFU/mL, 37°C, 24 h, absorbance 590 nm, at least triplicate. The method in brief: as §1
For data set [7], the system named is Pseudomonas aeruginosa (PCM 499). The data set is classed as cell-based. The settings on record: broth microdilution, Mueller-Hinton broth, approximately 10^5 CFU/mL, 37°C, 24 h, absorbance 590 nm, at least triplicate. The method in brief:
as §1

For data set [8], the system named is Staphylococcus aureus (PCM 2054). The data set is classed as cell-based. The settings on record: broth microdilution, Mueller-Hinton broth, approximately 10^5 CFU/mL, 37°C, 24 h, absorbance 590 nm, at least triplicate. The method in brief: as §1
In data set [9] the test system is Candida krusei (CCM 8271). Type of data set: cell-based. Particulars: broth microdilution, Mueller-Hinton broth + 2% glucose, about 2.5 x 10^3 CFU/mL, 37°C, 24 h, absorbance 590 nm, at least triplicate. The method in brief:
as §1

Data set [10] is described as follows: Circular dichroism, alpha-helical content. The data set is classed as physicochemical. Particulars: CD, mean residue ellipticity at 222 nm (Eq 1), peptide 0.4 mg/ml in 30 mM SDS, room temperature. (In general: Circular dichroism is the unequal absorption of left and right circularly polarised light.)
Data set [11] relates to B. cereus. Type of data set: cell-based. Particulars: broth microdilution, Mueller-Hinton broth, approximately 10^5 CFU/mL, 37°C, 24 h, absorbance 590 nm, at least triplicate. The method in brief:
(§2)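 Peptides serially diluted in PBS at 2–250 μg/mL before inoculum addition, then inoculated with ~10^5 CFU/mL exponential-phase bacteria in double-strength Mueller-Hinton broth. Plates incubated overnight at 37°C, with growth read as absorbance at 590 nm after 24 h. MIC determined in at least triplicate.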

Data set [12] has as its system B. subtilis. Type of data set: cell-based. The settings on record: broth microdilution, Mueller-Hinton broth, approximately 10^5 CFU/mL, 37°C, 24 h, absorbance 590 nm, at least triplicate. The method in brief: as §2

Some results are limits rather than exact numbers.

Take “IKKILSKIKKLL-NH2 [DK5, Lys-rich derivative of amphibian AMP temporin-1CEb, …-NH2, reference compound]”: the “MIC C. albicans” value in [1] was 31.3 µg/mL. Also, in data set [2], the “MIC C.tropicalis” value was below 2 µg/mL. Further, in data set [3], the “MIC C.glabrata” value stood at 62.5 µg/mL. Moreover, in data set [4], the “MIC S. epidermidis” value was 7.8 µg/mL. The “MIC E.coli” value in [5] is above 125 µg/mL. The “MIC C. parapsilosis” value in [6] turned out to be 31.3 µg/mL. For the same substance, the “MIC P. aeruginosa” value in [7] turned out to be 50 µg/mL. Moreover, the “MIC S.aureus” value in data set [8] is above 125 µg/mL. In [9], the “MIC C.krusei” value is 7.8 µg/mL. In addition, the α-helicity in [10] is reported as 29%. Also, the “MIC B. cereus” value in data set [11] was above 125 µg/mL. Further, the “MIC B. subtilis” value in data set [12] came to 15.6 µg/mL.
As for “YAGFLR-PEG-IKKILSKIKKLL-NH2 [DAL-PEG-DK5, conjugate of dalargin and DK5 joined by PEG-linker]”, the “MIC C. albicans” value in data set [1] came to 25 µg/mL. The “MIC C.tropicalis” value in data set [2] was below 2 µg/mL. Also, the “MIC C.glabrata” value in [3] was 125 µg/mL. In [4], the “MIC S. epidermidis” value came out at 7.8 µg/mL. Further, in data set [5], the “MIC E.coli” value was 25 µg/mL. Moreover, the “MIC C. parapsilosis” value in data set [6] stood at 2.0 µg/mL. The “MIC P. aeruginosa” value in data set [7] is 25 µg/mL. Also, in data set [8], the “MIC S.aureus” value is 50 µg/mL. In addition, the “MIC C.krusei” value in data set [9] is 3.9 µg/mL. This substance also came in with a α-helicity in [10] of 35%. For the same substance, the “MIC B. cereus” value in [11] came out at 25 µg/mL. Moreover, in data set [12], the “MIC B. subtilis” value is 2.0 µg/mL.
Regarding “YAGFLR-PEG-IKKILSKIKKLLK-NH2 [DAL-PEG-LK6, conjugate of dalargin and LK6 joined by PEG-linker]”, in [1], the “MIC C. albicans” value worked out at 25 µg/mL. The “MIC C.tropicalis” value in [2] worked out at 3.9 µg/mL. For the same substance, the “MIC C.glabrata” value in [3] was above 125 µg/mL. For the same substance, the “MIC S. epidermidis” value in data set [4] was 7.8 µg/mL. Moreover, the “MIC E.coli” value in data set [5] is 25 µg/mL. For the same substance, the “MIC C. parapsilosis” value in data set [6] turned out to be 2.0 µg/mL. Moreover, in data set [7], the “MIC P. aeruginosa” value was determined as 25 µg/mL. In [8], the “MIC S.aureus” value worked out at 25 µg/mL. For the same substance, the “MIC C.krusei” value in data set [9] was 7.8 µg/mL. In data set [10], this substance displayed a α-helicity of 25%. The “MIC B. cereus” value in data set [11] came to 12.5 µg/mL. The “MIC B. subtilis” value in data set [12] turned out to be 7.8 µg/mL.

For the origin of these results see publication PMC4608580, “Synthesis and Evaluation of Biological Activity of Antimicrobial – Pro-Proliferative Peptide Conjugates” (PLoS ONE, 2015).
